Test results: PMC11435093, “Synthesis and Evaluation of ^99mTc(CO)3 Complexes with Ciprofloxacin Dithiocarbamate for Infection Imaging” (Pharmaceutics, 2024)

Tests used:
[1] = Lipophilicity: partition between n-octanol and PBS pH 7.4; type: physicochemical; conditions: n-octanol/PBS pH 7.4, M: 99mTc, three determinations
Protocol: The lipophilicity of HPLC purified technetium-99m complexes 1′–6′ was determined by measuring the partition coefficient (logD7.4) between n-octanol and phosphate-buffered saline (PBS, pH 7.4) based on established literature methods and is briefly described here. An aliquot of each technetium-99m complex was added to a mixture of equal volumes (2.0 mL each) of n-octanol and PBS (pH 7.4) in a 5 mL centrifuge tube. The mixture was vigorously vortexed for 2 min and then centrifuged at 5000 rpm for 5 min to ensure complete phase separation. After centrifugation, 0.1 mL aliquots from both the n-octanol and PBS phases were sampled and their radioactivity was measured using a gamma counter. The log P was calculated using the following equation: […]. The procedure was repeated three times for each complex to ensure reproducibility.

[2] = tested on: Swiss Albino mice with induced infection (Staphylococcus aureus) and aseptic inflammation (turpentine); test: Biodistribution in mice with induced infection and aseptic inflammation; type: in vivo; conditions: for Urine radioactivity: per sample; for blood clearance / blood radioactivity course: within 120 min
Protocol: The in vivo behavior of HPLC purified technetium-99m complexes 1′–6′ was evaluated through biodistribution studies in Swiss Albino mice (40 ± 5 g) with induced infection and aseptic inflammation. The experiment was conducted in accordance with the guidelines for the protection of animals used for scientific purposes. Mice were divided into groups and prepared for biodistribution studies by inducing infection and aseptic inflammation. Twenty-four hours prior to the injection of the technetium complexes, the left thigh muscle of each mouse was inoculated with 50 µL of a Staphylococcus aureus suspension (1 × 10^6 CFU/mL) to induce infection. Aseptic inflammation was induced in the right thigh muscle by injecting 50 µL of turpentine oil. The technetium-99m complexes were administered intravenously via the tail vein. Each mouse received an injection of 0.037 MBq of the respective technetium-99m complex. The biodistribution was studied at two different time points, 15 min and 120 min post-injection. At each time point, the mice were sacrificed under anesthesia. Blood samples were obtained by cardiac puncture. The organs of interest were collected after dissection, including the liver, heart, kidneys, stomach, intestines, spleen, muscle (normal, infected, and inflamed), lungs, pancreas, and urinary bladder. The organs were made free from adhering tissues and transferred into pre-weighed counting vials. The radioactivity of the collected samples was measured using a shielded well-type gamma counter. The results were expressed as a percentage of injected dose per gram of tissue (% ID/g). The radioactivity ratios in infected muscle to normal muscle and inflamed muscle to normal muscle were calculated to assess the specificity and selectivity of the technetium complexes for infection and inflammation.

Compound	LogD7.4 [1]	Liver radioactivity ([2]; 15 min post i.v. injection)	Lungs radioactivity ([2]; 15 min post i.v. injection)	Muscle (normal) radioactivity ([2]; 15 min post i.v. injection)	Pancreas radioactivity ([2]; 15 min post i.v. injection)	Spleen radioactivity ([2]; 15 min post i.v. injection)	Intestines radioactivity ([2]; 120 min post i.v. injection)	Kidneys radioactivity ([2]; 120 min post i.v. injection)	Liver radioactivity ([2]; 120 min post i.v. injection)	Lungs radioactivity ([2]; 120 min post i.v. injection)	Muscle (normal) radioactivity ([2]; 120 min post i.v. injection)	Pancreas radioactivity ([2]; 120 min post i.v. injection)	Spleen radioactivity ([2]; 120 min post i.v. injection)	Aseptic Infl. (turpentine inflamed muscle) radioactivity ([2]; 15 min post i.v. injection)	Blood radioactivity ([2]; 15 min post i.v. injection)	Heart radioactivity ([2]; 15 min post i.v. injection)	Infection (S. aureus infected muscle) radioactivity ([2]; 15 min post i.v. injection)	Intestines radioactivity ([2]; 15 min post i.v. injection)	Kidneys radioactivity ([2]; 15 min post i.v. injection)	Stomach radioactivity ([2]; 15 min post i.v. injection)	also measured
fac-[M(CO)3(Cip-DTC)(DMPP)] [complex 5′]	2.0	35.51 ± 0.97 %ID/g	9.87 ± 0.89 %ID/g	0.40 ± 0.06 %ID/g	0.83 ± 0.18 %ID/g	18.04 ± 0.73 %ID/g	9.98 ± 1.22 %ID/g	5.69 ± 1.44 %ID/g	31.27 ± 5.71 %ID/g	5.37 ± 0.47 %ID/g	1.34 ± 0.09 %ID/g	3.68 ± 0.48 %ID/g	7.64 ± 1.22 %ID/g								
fac-[M(CO)3(Cip-DTC)(ADAP)] [complex 6′]	1.6	20.95 ± 1.56 %ID/g	7.13 ± 0.35 %ID/g	1.01 ± 0.12 %ID/g	3.70 ± 0.26 %ID/g	6.40 ± 0.66 %ID/g	10.24 ± 1.11 %ID/g	4.47 ± 0.52 %ID/g	22.98 ± 2.70 %ID/g	3.06 ± 0.10 %ID/g	0.69 ± 0.05 %ID/g	2.27 ± 0.37 %ID/g	2.55 ± 0.27 %ID/g	1.10 ± 0.06 %ID/g	2.18 ± 0.06 %ID/g	4.27 ± 0.42 %ID/g	0.94 ± 0.09 %ID/g	3.22 ± 0.32 %ID/g	8.05 ± 0.22 %ID/g	0.98 ± 0.29 %ID/g	Urine radioactivity ([2]; 15 min post i.v. injection): 0.37 ± 0.08 %ID; Aseptic Infl. (turpentine inflamed muscle) radioactivity ([2]; 120 min post i.v. injection): 0.66 ± 0.10 %ID/g; Blood radioactivity ([2]; 120 min post i.v. injection): 1.33 ± 0.10 %ID/g; Heart radioactivity ([2]; 120 min post i.v. injection): 1.94 ± 0.31 %ID/g; Infection (S. aureus infected muscle) radioactivity ([2]; 120 min post i.v. injection): 0.69 ± 0.09 %ID/g; Stomach radioactivity ([2]; 120 min post i.v. injection): 3.14 ± 0.69 %ID/g; Urine radioactivity ([2]; 120 min post i.v. injection): 1.49 ± 0.23 %ID
COc1ccc(P(c2ccc(OC)cc2)c2ccc(OC)cc2)cc1.O=C(O)c1cn(C2CC2)c2cc(N3CCN(C(=S)[S][99Tc])CC3)c(F)cc2c1=O.[C-]#[O+].[C-]#[O+].[C-]#[O+] [complex 3′, fac-[^99mTc(CO)3(Cip-DTC)(TMPP)]]	2.7	47.48 ± 1.30 %ID/g	9.58 ± 0.86 %ID/g		0.29 ± 0.13 %ID/g	33.88 ± 2.81 %ID/g	3.52 ± 0.19 %ID/g	5.65 ± 0.78 %ID/g	27.58 ± 0.66 %ID/g	8.67 ± 0.72 %ID/g	0.34 ± 0.02 %ID/g	0.93 ± 0.20 %ID/g	23.10 ± 1.74 %ID/g	0.15 ± 0.07 %ID/g	2.54 ± 0.25 %ID/g	0.74 ± 0.32 %ID/g	0.27 ± 0.11 %ID/g	0.36 ± 0.25 %ID/g	1.40 ± 0.57 %ID/g	0.64 ± 0.61 %ID/g	Urine radioactivity ([2]; 15 min post i.v. injection): 0.00 ± 0.00 %ID; Aseptic Infl. (turpentine inflamed muscle) radioactivity ([2]; 120 min post i.v. injection): 0.52 ± 0.23 %ID/g; Blood radioactivity ([2]; 120 min post i.v. injection): 6.71 ± 0.50 %ID/g; Heart radioactivity ([2]; 120 min post i.v. injection): 3.48 ± 0.23 %ID/g; Infection (S. aureus infected muscle) radioactivity ([2]; 120 min post i.v. injection): 1.14 ± 0.05 %ID/g; Stomach radioactivity ([2]; 120 min post i.v. injection): 1.21 ± 0.32 %ID/g; aseptic inflammation/normal muscle ratio ([2]; 120 min post i.v. injection): 1.51; infected/normal muscle ratio ([2]; 120 min post i.v. injection): 3.32; Urine radioactivity ([2]; 120 min post i.v. injection): 0.01 ± 0.02 %ID; blood clearance / blood radioactivity course [2]: increasing
O=C(O)c1cn(C2CC2)c2cc(N3CCN(C(=S)[S][99Tc])CC3)c(F)cc2c1=O.[C-]#[O+].[C-]#[O+].[C-]#[O+].c1ccc(P(c2ccccc2)c2ccccc2)cc1 [complex 2′, fac-[^99mTc(CO)3(Cip-DTC)(PPh3)]]	2.3	32.36 ± 3.58 %ID/g	6.66 ± 1.45 %ID/g	0.90 ± 0.09 %ID/g	0.47 ± 0.20 %ID/g	38.44 ± 3.92 %ID/g	1.08 ± 0.07 %ID/g	6.50 ± 0.36 %ID/g	27.16 ± 4.02 %ID/g	10.20 ± 0.12 %ID/g	0.68 ± 0.05 %ID/g	1.04 ± 0.04 %ID/g	37.02 ± 4.43 %ID/g	1.21 ± 0.07 %ID/g	4.51 ± 1.32 %ID/g	1.23 ± 0.36 %ID/g	2.93 ± 0.09 %ID/g	0.14 ± 0.03 %ID/g	1.30 ± 0.13 %ID/g	0.55 ± 0.23 %ID/g	aseptic inflammation/normal muscle ratio ([2]; 15 min post i.v. injection): 1.34; infected/normal muscle ratio ([2]; 15 min post i.v. injection): 3.29; Urine radioactivity ([2]; 15 min post i.v. injection): 3.95 ± 1.30 %ID; Aseptic Infl. (turpentine inflamed muscle) radioactivity ([2]; 120 min post i.v. injection): 0.86 ± 0.10 %ID/g; Blood radioactivity ([2]; 120 min post i.v. injection): 5.19 ± 0.81 %ID/g; Heart radioactivity ([2]; 120 min post i.v. injection): 3.97 ± 0.25 %ID/g; Infection (S. aureus infected muscle) radioactivity ([2]; 120 min post i.v. injection): 3.12 ± 0.14 %ID/g; Stomach radioactivity ([2]; 120 min post i.v. injection): 1.23 ± 0.14 %ID/g; aseptic inflammation/normal muscle ratio ([2]; 120 min post i.v. injection): 1.28; infected/normal muscle ratio ([2]; 120 min post i.v. injection): 4.62; Urine radioactivity ([2]; 120 min post i.v. injection): 4.04 ± 1.23 %ID; blood clearance / blood radioactivity course [2]: relatively stable
CP(c1ccccc1)c1ccccc1.O=C(O)c1cn(C2CC2)c2cc(N3CCN(C(=S)[S][99Tc])CC3)c(F)cc2c1=O.[C-]#[O+].[C-]#[O+].[C-]#[O+] [complex 4′, fac-[M(CO)3(Cip-DTC)(MePPh2)]]	1.8	42.11 ± 1.70 %ID/g	11.15 ± 0.19 %ID/g	0.56 ± 0.07 %ID/g	1.38 ± 0.21 %ID/g	21.59 ± 0.98 %ID/g	7.97 ± 0.12 %ID/g	11.10 ± 0.70 %ID/g	31.09 ± 0.72 %ID/g	9.41 ± 1.15 %ID/g		3.21 ± 0.28 %ID/g	8.14 ± 0.93 %ID/g	0.77 ± 0.12 %ID/g	3.20 ± 0.47 %ID/g	4.36 ± 0.46 %ID/g	0.88 ± 0.15 %ID/g	1.27 ± 0.16 %ID/g	5.92 ± 0.60 %ID/g	1.11 ± 0.50 %ID/g	Urine radioactivity ([2]; 15 min post i.v. injection): 0.01 ± 0.00 %ID; Aseptic Infl. (turpentine inflamed muscle) radioactivity ([2]; 120 min post i.v. injection): 1.88 ± 0.26 %ID/g; Blood radioactivity ([2]; 120 min post i.v. injection): 1.48 ± 0.11 %ID/g; Heart radioactivity ([2]; 120 min post i.v. injection): 8.85 ± 0.63 %ID/g; Infection (S. aureus infected muscle) radioactivity ([2]; 120 min post i.v. injection): 2.83 ± 0.30 %ID/g; Stomach radioactivity ([2]; 120 min post i.v. injection): 2.23 ± 0.37 %ID/g; Urine radioactivity ([2]; 120 min post i.v. injection): 0.04 ± 0.03 %ID
